Here are results for 22 compounds from US9493441B2, “Acyclic cyanoethylpyrazoles as janus kinase inhibitors” (Merck Sharp & Dohme Corp., priority 2011, dated 2016).

For assay [1], the target named is JAK1 (Homo sapiens (Human), UniProt P23458). Briefly: Jak biochemical HTRF assay, JAK1. For orientation: TR-FRET usually uses a lanthanide donor and a delayed reading to cut background.
In assay [2] the target is JAK2 (Homo sapiens (Human), UniProt O60674). Briefly: Jak biochemical HTRF assay, JAK2.
The mark [3] stands for this setting: JAK1 IC50 (nM), recombinant GST-tagged catalytic domain, [ATP] 31.8 μM.
The mark [4] stands for this setting: JAK2 IC50 (nM), recombinant GST-tagged catalytic domain, [ATP] […].

Read-outs that look alike come from different tables or passages of the source.

The IC50 is the concentration at which inhibition is half-maximal.

Sequence of JAK1 (P23458 875-1153): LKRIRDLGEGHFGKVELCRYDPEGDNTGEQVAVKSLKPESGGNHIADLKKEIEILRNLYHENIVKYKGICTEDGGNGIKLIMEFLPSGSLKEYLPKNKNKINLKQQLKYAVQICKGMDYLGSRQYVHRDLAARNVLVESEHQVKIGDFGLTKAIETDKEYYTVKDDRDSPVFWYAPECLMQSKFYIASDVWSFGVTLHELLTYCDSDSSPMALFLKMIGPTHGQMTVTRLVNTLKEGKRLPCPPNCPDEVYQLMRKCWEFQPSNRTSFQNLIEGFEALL
Sequence of JAK2 (O60674 849-1124): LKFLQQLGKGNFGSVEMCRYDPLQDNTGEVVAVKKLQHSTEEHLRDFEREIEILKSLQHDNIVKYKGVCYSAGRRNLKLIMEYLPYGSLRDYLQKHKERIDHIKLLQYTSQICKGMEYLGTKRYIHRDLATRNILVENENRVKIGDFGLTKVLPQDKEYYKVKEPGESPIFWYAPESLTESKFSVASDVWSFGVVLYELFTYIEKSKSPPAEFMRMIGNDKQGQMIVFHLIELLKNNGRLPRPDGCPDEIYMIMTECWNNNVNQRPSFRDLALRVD

`CC(C)(C)OC(=O)CN1Cc2cc(Nc3nn(C(CC#N)C4CC4)cc3C(N)=O)ccc2C1=O` (centres unmarked) [Example 4-34, tert-butyl (5-{[4-carbamoyl-1-(2-cyano-1-cyclopropylethyl)-1H-pyrazol-3-yl]amino}-1-oxo-1,3-dihydro-2H-isoindol-2-yl)acetate]: the IC50 in assay [1] (setting [3]) was 2 nM; in assay [2] (setting [4]), 20 nM.
For `C[C@@H](C#N)[C@H](C)n1cc(C(N)=O)c(Nc2ccccc2)n1` (mixture of isomers) [Example 1-23, 1-((2S, 3R and 2R, 3S)-3-cyclobutan-2-yl)-3-(phenylamino)-1H-pyrazole-4-carboxamide], the IC50 in assay [1] (setting [3]) turned out to be 123 nM; in assay [2] (setting [4]), 413 nM.
On to `CC(CC#N)n1cc(C(N)=O)c(Nc2ccc(C(=O)N3CCS(=O)(=O)CC3)cc2)n1` (centres unmarked) [Example 1-16, 1-(2-cyano-1-methylethyl)-3-({4-[(1,1-dioxidothiomorpholin-4-yl)carbonyl]phenyl}amino)-1H-pyrazole-4-carboxamide], for which the concentration for half-maximal inhibition (IC50) was found to be 19 nM in assay [1] (setting [3]) and 45 nM in assay [2] (setting [4]).
As to `CN(C)CCOC(=O)N1CCC([C@H](CC#N)n2cc(C(N)=O)c(Nc3ccc(F)cc3)n2)CC1` (stereo in doubt) [Example 11-1, 2-(Dimethylamino)ethyl 4-(1-{4-carbamoyl-3-[(4-fluorophenyl)amino]-1H-pyrazol-1-yl}-2-cyanoethyl)piperidine-1-carboxylate], the IC50 in assay [1] (setting [3]) stood at 959 nM; in assay [2] (setting [4]) it was 1500 nM.
The like results for `CC(CC#N)n1cc(C(N)=O)c(Nc2ccccc2)n1` (centres unmarked) [Example 1-6, 1-(2-cyano-1-methylethyl)-3-(phenylamino)-1H-pyrazole-4-carboxamide] were, in that order, 61 nM and 417 nM.
As to `N#CCC(C1CC1)n1cc(C(N)=O)c(Nc2ccccc2)n1` (centres unmarked) [Example 1-1, 1-(2-Cyano-1-cyclopropylethyl)-3-(phenylamino)-1H-pyrazole-4-carboxamide], the IC50 in assay [1] (setting [3]) turned out to be 10 nM; in assay [2] (setting [4]), 79 nM.
On the same counts, the results for `N#CCC(C1CC1)n1cc(C(N)=O)c(Nc2cccnc2)n1` (centres unmarked) [Example 4-6, 1-(2-cyano-1-cyclopropylethyl)-3 - (pyridin-3-ylamino)-1H-pyrazole-4-carboxamide] are 33 nM and 76 nM.
For the compound `COc1cc(Nc2nn(C(CC#N)C3CC3)cc2C(N)=O)ccn1` (centres unmarked) [Example 4-12, 1-(2-cyano-1-cyclopropylethyl)-3-[(2-methoxypyridin-4-yl)amino]-1H-pyrazole-4-carboxamide], the figures for the IC50 in assay [1] (setting [3]) and in assay [2] (setting [4]) were 7 nM and 66 nM, respectively.
`CC(C)(O)COCc1cccc(Nc2nn(C(CC#N)C3CC3)cc2C(N)=O)c1` (centres unmarked) [Example 6-1, 1-(2-Cyano-1-cyclopropylethyl)-3-({3-[(2-hydroxy-2-methylpropoxy)methyl]phenyl}amino)-1H-pyrazole-4-carboxamide]: the IC50 in assay [1] (setting [3]) worked out at 47 nM; in assay [2] (setting [4]), 115 nM.
For `N#CCCn1cc(C(N)=O)c(Nc2ccccc2)n1` [Example 1-4, 1-(2-cyanoethyl)-3-(phenylamino)-1H-pyrazole-4-carboxamide], the results for the IC50 in assay [1] (setting [3]) and in assay [2] (setting [4]) were 348 nM and 1190 nM, respectively.
On the same counts, the results for `N#CCC(C1CCCC1)n1cc(C(N)=O)c(Nc2ccccc2)n1` (single isomer, unassigned) [Example 16-3, 1-[(1S or 1R)-2-cyano-1-cyclopentylethyl]-3-(phenylamino)-1H-pyrazole-4-carboxamide] are 47 nM and 742 nM.
With `N#CCC(C1CC1)n1cc(C(N)=O)c(Nc2ccc3c(c2)CN(CC(F)(F)F)C3=O)n1` (centres unmarked) [Example 4-31, 1-(2-cyano-1-cyclopropylethyl)-3-{[1-oxo-2-(2,2,2-trifluoroethyl)-2,3-dihydro-1H-isoindol-5-yl]amino}-1H-pyrazole-4-carboxamide], the results for the IC50 in assay [1] (setting [3]) and in assay [2] (setting [4]) were 2 nM and 7 nM, respectively.
The like results for `N#CC[C@@H](C1CCN(C(=O)OC2CCC2)CC1)n1cc(C(N)=O)c(Nc2ccc(F)cc2)n1` [Example 11-5, cyclobutyl 4-[(1S)-1-{4-carbamoyl-3-[(4-fluorophenyl)amino]-1H-pyrazol-1-yl}-2-cyanoethyl]piperidine-1-carboxylate] were, in that order, 33 nM and 1170 nM.
In the case of `N#CCC(CC1CCOCC1)n1cc(C(N)=O)c(Nc2ccccc2)n1` (centres unmarked) [Example 1-10, 1-[2-cyano-1-(tetrahydro-2H-pyran-4-ylmethyl)ethyl]-3-(phenylamino)-1H-pyrazole-4-carboxamide], the 50% inhibitory concentration (IC50) in assay [1] (setting [3]) worked out at 289 nM; in assay [2] (setting [4]), 1480 nM.
As to `N#CCC(C1CCCC1)n1cc(C(N)=O)c(Nc2ccccc2)n1` (single isomer, unassigned) [Example 16-4, 1-[(1S or 1R)-2-cyano-1-cyclopentylethyl]-3-(phenylamino)-1H-pyrazole-4-carboxamide], the IC50 in assay [1] (setting [3]) worked out at 141 nM; in assay [2] (setting [4]), 567 nM.
`CC(C)(C)OC(=O)N1CCC(C(CC#N)n2cc(C(N)=O)c(Nc3ccccc3)n2)CC1` (centres unmarked) [Example 1-2, tert-butyl 4-{1-[4-carbamoyl-3-(phenylamino)-1H-pyrazol-1-yl]-2-cyanoethyl}piperidine-1-carboxylate]: the IC50 in assay [1] (setting [3]) turned out to be 7 nM; in assay [2] (setting [4]) it was 228 nM.
For the compound `N#CC[C@@H](C1CCN(C(=O)OCc2ccccc2)CC1)n1cc(C(N)=O)c(Nc2ccc(F)cc2)n1` (single isomer, unassigned) [Example 12-6, benzyl 4-[(1S or 1R)-1-{4-carbamoyl-3-[(4-fluorophenyl)amino]-1H-pyrazol-1-yl}-2-cyanoethyl]piperidine-1-carboxylate], the IC50 in assay [1] (setting [3]) amounted to 190 nM; in assay [2] (setting [4]), 1500 nM.
On to `N#CCC(C1CC1)n1cc(C(N)=O)c(Nc2cncc(C#N)c2)n1` (centres unmarked) [Example 4-18, 1-(2-cyano-1-cyclopropylethyl)-3-[(5-cyanopyridin-3-yl)amino]-1H-pyrazole-4-carboxamide], for which the IC50 turned out to be 131 nM in assay [1] (setting [3]) and 425 nM in assay [2] (setting [4]).
On the same counts, the results for `CC(CC#N)n1cc(C(N)=O)c(Nc2ccc(S(C)(=O)=O)cc2)n1` (centres unmarked) [Example 10, 1-(2-Cyano-1-methylethyl)-3-{[4-(methylsulfonyl)phenyl]amino}-1H-pyrazole-4-carboxamide] are 7 nM and 45 nM.
With `Cc1noc(-c2ccc(Nc3nn([C@@H](CC#N)C4CC4)cc3C(N)=O)cc2)n1` (single isomer, unassigned) [Example 18-2, 1-[(1R or 1S)-2-cyano-1-cyclopropylethyl]-3-{[4-(3-methyl-1,2,4-oxadiazol-5-yl)phenyl]amino}-1H-pyrazole-4-carboxamide], the IC50 was 34 nM in assay [1] (read-out: JAK1 IC50, recombinant GST-tagged catalytic domain, [ATP] 31.8 μM) and 257 nM in assay [2] (read-out: JAK2 IC50, recombinant GST-tagged catalytic domain, [ATP] […]).
As for `CC(=O)Nc1ccc(Nc2nn(C(CC#N)C3CC3)cc2C(N)=O)cc1` (centres unmarked) [Example 4-21, 3-{[4-(acetylamino)phenyl]amino}-1-(2-cyano-1-cyclopropylethyl)-1H-pyrazole-4-carboxamide], the half-maximal inhibitory concentration (IC50) in assay [1] (setting [3]) was 8 nM; in assay [2] (setting [4]), 45 nM.
The like results for `N#CC[C@@H](C1CCN(C(=O)OCC(F)(F)F)CC1)n1cc(C(N)=O)c(Nc2ccc(F)cc2)n1` [Example 11-7, 2,2,2-trifluoroethyl 4-[(1S)-1-{4-carbamoyl-3-[(4-fluorophenyl)amino]-1H-pyrazol-1-yl}-2-cyanoethyl]piperidine-1-carboxylate] were, in that order, 7 nM and 425 nM.
